Patent US7220575B2, “Melanoma differentiation associated gene-5 and promoter and uses thereof” (priority 2000, dated 2007)
“Also recorded” adds a separate entry of the source.

Key:
mda-5 expression [1] = experiment: Northern blot analysis of mda-5 expression in HO-1 human melanoma cells; assay type: cell-based; settings: HO-1 cells; for mda-5 expression (steady-state mda-5 message level): treated 24 hr, Northern blot
Procedure: (§1) FIGS. 2A–2B. Northern blot analysis of mda-5 expression by various compounds inducing differentiation in HO-1 human melanoma cells. RNA samples were extracted from cells treated as indicated for 24 hr. FIG. 2A. HO-1 human melanoma cells. FIG. 2B. Early passage human skin fibroblast cells. Northern hybridization was performed as in Materials and Methods.
(§2) FIGS. 4A–4B. Northern blot analysis of mda-5 expression by ligands for various membrane receptors. RNA samples were extracted from cells treated as indicated for 24 hr. FIG. 4A. HO-1 human melanoma cells. FIG. 4B. Early passage human skin fibroblast cells. Northern hybridization was performed as in Materials and Methods.
FIG. 5. Northern blot analysis and time course of mda-5 expression. RNA samples were extracted from HO-1 cells treated with the indicated reagents and harvested at the indicated time after treatment. Northern blotting was performed as in Materials and Methods.
(§3) FIGS. 7A–7C. […] A. Northern blot analysis of mda-5. […] Cells were harvested at the indicated time after actinomycin D treatment. Northern hybridization was performed as in Materials and Methods. FIG. 7B. Nuclear run-on assays for determining mda-5 transcription rates. Nuclei were prepared from HO-1 melanoma cells treated with the indicated reagent(s) for 4 hr. Blots were prepared and hybridized as described in Materials and Methods. […] FIG. 7C. Northern blot analysis of mda-5 expression after blocking protein synthesis by cycloheximide (CHX). RNA samples were extracted from HO-1 melanoma cells pretreated with 50 μg/ml cycloheximide for 30 min and treated with the indicated reagents for 8 hr. Abbreviations and concentrations of indicated reagents are as in FIG. 4.
(§4) Cell Culture and Treatment Protocol: HO-1 human melanoma cells, early passage human skin fibroblast (purchased from ATCC) and 293T cells were grown in Dulbecco's modified Eagle's medium supplemented with 10% fetal bovine serum at 37° C. in a 5% CO2/95% air humidified incubator. Prior to treatment, cells were refed with fresh medium and exposed to the indicated compound(s) at the concentrations specified in the figure legends.
(§5) Northern Blot Analyses and Nuclear Run-On Assays: Total cellular RNA samples were prepared by guanidium isothiocyanate/phenol extraction followed by isopropanol precipitation. Ten 10 μg of total RNA were resolved in 1% agarose gels with formaldehyde and were transferred to Nylon membranes. EcoRI fragment of mda-5 cDNA (2.5 kb) was labeled with 32P using a multiprime labeling kit (Boehringer Mannheim) and used to probe the transferred membrane. Nuclear run-on assays were performed as previously described ((17) Su et al., 1993, 1999). Probes used for nuclear run-on assays were prepared by RT-PCR and included the mda-5 5′, 9–837 bp; mda-5 3′, 2531–3365 bp; and GAPDH fragment.

mda-5 transcription = experiment: Nuclear run-on assays for mda-5 transcription rates in HO-1 melanoma cells; assay type: cell-based, human; settings: HO-1 cells treated 4 hr
Procedure: as §3
as §5, with “Probes used for nuclear run-on assays were prepared by RT-PCR and included the mda-5 5′, 9–837 bp; mda-5 3′, 2531–3365 bp; and GAPDH fragment.” left out

mda-5 expression [2] = experiment: Northern blot analysis of mda-5 expression in early passage human skin fibroblast cells; assay type: cell-based
Procedure: as §1, §2, §4, §5

mda-5 promoter = mda-5 promoter luciferase reporter in HO-1 cells (transient and stable clones); assay type: cell-based, human
Procedure: FIG. 11: Screening of stable human HO-1 melanoma clones for promoter activity of stably integrated mda-5 reporter construct. Transfected HO-1 cells were selected by Puromycin drug selection and individual colonies analyzed for induction of luciferase activity in the presence of IFN-β. Values are expressed as fold change against uninduced values of luciferase activity.
FIG. 12: Induction kinetics of mda-5 promoter activity. Stable clones #20 and #40 were treated with IFN-β and samples were harvested and analyzed for luciferase activity at the times indicated.
FIG. 13: Responsiveness of the mda-5 promoter to IFN-β levels: Stable clones #20 and #40 were treated with IFN-β and samples were harvested and analyzed for luciferase activity 48h after initiation of treatment. The extent of activity was normalized based on equivalent protein content and performed in duplicate for each clone.
FIGS. 14A–14B: Responsiveness of the mda-5 promoter to various inducers: FIG. 14A. HO-1 cells transiently transfected with the mda-5 reporter and treated for 48 h with equivalent units of IFNs α, β and γ and TNF-α and poly IC:IC. The luciferase activity was expressed as fold increase over untreated control cells. FIG. 14B. Clone #40 was treated with equivalent units of the indicated IFNs for 48 h and luciferase activity expressed as fold activation over untreated cells determined. […]

| Molecule | mda-5 expression (steady-state mda-5 message level) (mda-5 expression [1]) | mda-5 expression (mda-5 expression [2]) | further results |
| --- | --- | --- | --- |
| C[C@@H]1C[C@@H]([C@H](O)CC2CC(=O)NC(=O)C2)C(=O)[C@@H](C)C1 [Cycloheximide, cycloheximide] |  |  | effect of cycloheximide pre-treatment on mda-5 steady-state mRNA levels induced by IFNs, TNF and poly IC (mda-5 expression [1]; 50 μg/ml cycloheximide 30 min, then inducers 8 hr): does not inhibit |
| C=C(C)[C@@]12O[C@@]3(c4ccccc4)O[C@@H]1[C@@H]1[C@@H]4O[C@]4(CO)[C@@H](O)[C@]4(O)C(=O)C(C)=C[C@H]4[C@@]1(O3)[C@H](C)[C@H]2OC(=O)/C=C/C=C/c1ccccc1 [MEZ, mezerein] | does not induce mda-5 expression |  | augmentation of mda-5 expression by MEZ in combination with IFN-β (mda-5 expression [1]; 24 hr): approximately 3 fold; augmentation of mda-5 expression by MEZ in combination with IFN-γ (mda-5 expression [1]; 24 hr): ~5 fold; time at which mda-5 message level begins increasing / induction first apparent (mda-5 expression [1]; time course): 48 h; mda-5 transcription (nuclear run-on) (mda-5 transcription): negligible levels of transcription |
| CCCCCCCCCCCCCC(=O)O[C@@H]1[C@@H](C)[C@@]2(O)[C@@H](C=C(CO)C[C@]3(O)C(=O)C(C)=C[C@@H]23)[C@@H]2C(C)(C)[C@]12OC(C)=O [TPA, 12-O-tetradecanoylphorbol-13-acetate] | fail to significantly induce mda-5 expression |  |  |
| CC1=C(/C=C/C(C)=C/C=C/C(C)=C/C(=O)O)C(C)(C)CCC1 [all trans retinoic acid, all-trans-retinoic acid] | fail to significantly induce mda-5 expression |  |  |
| Nc1ncnc2c1ncn2[C@@H]1O[C@@H]2COP(=O)(O)O[C@H]2[C@H]1O [cyclic-AMP, 3′–5′ cyclic adenosine monophosphate] | fail to significantly induce mda-5 expression |  |  |
| C[S+](C)[O-] [dimethyl sulfoxide] | fail to significantly induce mda-5 expression |  |  |
| COc1c(C)c2c(c(O)c1C/C=C(\C)CCC(=O)O)C(=O)OC2 [mycophenolic acid] | fail to significantly induce mda-5 expression |  |  |
| IFN-α | induce mda-5 expression; also recorded: increase mda-5 transcript levels, but the magnitude of this effect is less than with IFN-β or dsRNA | induce mda-5 expression |  |
| IFN-γ: interferon-γ | induce mda-5 expression; also recorded: increase mda-5 transcript levels, but the magnitude of this effect is less than with IFN-β or dsRNA | induce mda-5 expression |  |
| TNF-α | induce mda-5 expression; also recorded: comparable levels as seen with IFN-α | induce mda-5 expression |  |
| poly IC | induce mda-5 expression | induce mda-5 expression | mda-5 expression (steady-state mda-5 message level) (mda-5 expression [1]; listed as dsRNA): dramatically increases; responsiveness of mda-5 promoter construct / clones to inducer (mda-5 promoter): most responsive |
